Test results published in the NIST ThermoML archive (doi:10.1021/je500093z).
± gives the expanded uncertainty stated by the source.

Key:
[1] = refractive index (Na D-line) (dimensionless); conditions: 101.33 kPa, Liquid, Standard Abbe refractometry
[2] = for surface tension liquid-gas: Ring tensiometer; for viscosity / speed of sound / mass density: 101.33 kPa, Liquid; for speed of sound: Pulse-echo method; for mass density: Vibrating tube method

Row | SMILES | refractive index ([1]; 298.15 K) | refractive index ([1]; 303.15 K) | refractive index ([1]; 308.15 K) | refractive index ([1]; 313.15 K) | refractive index ([1]; 318.15 K) | refractive index ([1]; 323.15 K) | refractive index ([1]; 328.15 K) | refractive index ([1]; 333.15 K) | surface tension liquid-gas ([2]; 298.15 K) | viscosity ([2]; 298.15 K) | speed of sound ([2]; 298.15 K) | mass density ([2]; 298.15 K) | surface tension liquid-gas ([2]; 303.15 K) | viscosity ([2]; 303.15 K) | speed of sound ([2]; 303.15 K) | mass density ([2]; 303.15 K) | surface tension liquid-gas ([2]; 308.15 K) | viscosity ([2]; 308.15 K) | speed of sound ([2]; 308.15 K) | mass density ([2]; 308.15 K) | other results
1 | CCCC[n+]1ccc(C)cc1.F[B-](F)(F)F [1-butyl-4-methylpyridinium tetrafluoroborate] | 1.4507 ± 0.001 | 1.4502 ± 0.001 | 1.4495 ± 0.001 | 1.4488 ± 0.001 | 1.4482 ± 0.001 | 1.4475 ± 0.001 | 1.4469 ± 0.001 | 1.4463 ± 0.001 | 45.4 ± 0.9 mN/m | 202.86 ± 16 mPa·s | 1602.3 ± 3.1 m/s | 1190 ± 3 kg/m3 | 45.1 ± 0.9 mN/m | 146.57 ± 8.8 mPa·s | 1589.7 ± 3.1 m/s | 1186 ± 3 kg/m3 | 44.8 ± 0.9 mN/m | 108.7 ± 4.9 mPa·s | 1577.4 ± 3.1 m/s | 1183 ± 3 kg/m3 | surface tension liquid-gas ([2]; 313.15 K): 44.5 ± 0.9 mN/m; viscosity ([2]; 313.15 K): 82.49 ± 2.6 mPa·s; speed of sound ([2]; 313.15 K): 1565.2 ± 3.1 m/s; mass density ([2]; 313.15 K): 1179 ± 3 kg/m3; surface tension liquid-gas ([2]; 318.15 K): 44.2 ± 0.9 mN/m; viscosity ([2]; 318.15 K): 63.94 ± 1.3 mPa·s; speed of sound ([2]; 318.15 K): 1553.2 ± 3.1 m/s; mass density ([2]; 318.15 K): 1176 ± 3 kg/m3; surface tension liquid-gas ([2]; 323.15 K): 43.9 ± 0.9 mN/m; viscosity ([2]; 323.15 K): 50.51 ± 0.76 mPa·s; speed of sound ([2]; 323.15 K): 1541.2 ± 3.1 m/s; mass density ([2]; 323.15 K): 1173 ± 3 kg/m3; surface tension liquid-gas ([2]; 328.15 K): 43.5 ± 0.9 mN/m; viscosity ([2]; 328.15 K): 40.6 ± 0.8 mPa·s; speed of sound ([2]; 328.15 K): 1529.6 ± 3.1 m/s; mass density ([2]; 328.15 K): 1169 ± 3 kg/m3; surface tension liquid-gas ([2]; 333.15 K): 43.2 ± 0.9 mN/m; viscosity ([2]; 333.15 K): 33.14 ± 0.66 mPa·s; speed of sound ([2]; 333.15 K): 1517.9 ± 3.1 m/s; mass density ([2]; 333.15 K): 1166 ± 3 kg/m3
2 | CC(C)C[P+](C)(CC(C)C)CC(C)C.Cc1ccc(S(=O)(=O)[O-])cc1 [triisobutylmethylphosphonium p-toluenesulfonate] | 1.5185 ± 0.0013 | 1.5181 ± 0.0013 | 1.5174 ± 0.0013 | 1.516 ± 0.0013 | 1.5151 ± 0.0013 | 1.5144 ± 0.0013 | 1.5123 ± 0.0013 | 1.5119 ± 0.0013 | 33.9 ± 1 mN/m | 2132.4 ± 430 mPa·s | 1628.8 ± 5.1 m/s | 1068 ± 6 kg/m3 | 33.8 ± 1 mN/m | 1363.2 ± 250 mPa·s | 1610.6 ± 5.1 m/s | 1065 ± 6 kg/m3 | 33.6 ± 1 mN/m | 896.08 ± 140 mPa·s | 1585.6 ± 5.1 m/s | 1062 ± 6 kg/m3 | surface tension liquid-gas ([2]; 313.15 K): 33.4 ± 1 mN/m; viscosity ([2]; 313.15 K): 606.71 ± 83 mPa·s; speed of sound ([2]; 313.15 K): 1567.6 ± 5.1 m/s; mass density ([2]; 313.15 K): 1059 ± 6 kg/m3; surface tension liquid-gas ([2]; 318.15 K): 33.2 ± 1 mN/m; viscosity ([2]; 318.15 K): 422.49 ± 50 mPa·s; speed of sound ([2]; 318.15 K): 1551.1 ± 5.1 m/s; mass density ([2]; 318.15 K): 1056 ± 6 kg/m3; surface tension liquid-gas ([2]; 323.15 K): 32.9 ± 0.9 mN/m; viscosity ([2]; 323.15 K): 302.17 ± 30 mPa·s; speed of sound ([2]; 323.15 K): 1535.7 ± 5.1 m/s; mass density ([2]; 323.15 K): 1053 ± 6 kg/m3; surface tension liquid-gas ([2]; 328.15 K): 32.8 ± 0.9 mN/m; viscosity ([2]; 328.15 K): 221.27 ± 19 mPa·s; speed of sound ([2]; 328.15 K): 1521.5 ± 5.1 m/s; mass density ([2]; 328.15 K): 1050 ± 6 kg/m3; surface tension liquid-gas ([2]; 333.15 K): 32.6 ± 0.9 mN/m; viscosity ([2]; 333.15 K): 165.53 ± 12 mPa·s; speed of sound ([2]; 333.15 K): 1508.3 ± 5.1 m/s; mass density ([2]; 333.15 K): 1047 ± 6 kg/m3
3 | CCCCCCn1cc[n+](C)c1.F[P-](F)(F)(F)(F)F [1-hexyl-3-methylimidazolium hexafluorophosphate] | 1.4179 ± 0.001 | 1.4161 ± 0.001 | 1.4148 ± 0.001 | 1.4134 ± 0.001 | 1.4115 ± 0.001 | 1.4104 ± 0.001 | 1.4088 ± 0.001 | 1.4075 ± 0.001 | 37.2 ± 0.8 mN/m | 349.17 ± 37 mPa·s | 1424.4 ± 3.1 m/s | 1292 ± 4 kg/m3 | 36.9 ± 0.8 mN/m | 253.96 ± 23 mPa·s | 1411.3 ± 3.1 m/s | 1288 ± 4 kg/m3 | 36.6 ± 0.7 mN/m | 188.77 ± 14 mPa·s | 1399.6 ± 3.1 m/s | 1284 ± 4 kg/m3 | surface tension liquid-gas ([2]; 313.15 K): 36.3 ± 0.7 mN/m; viscosity ([2]; 313.15 K): 142.99 ± 8.4 mPa·s; speed of sound ([2]; 313.15 K): 1386.7 ± 3.1 m/s; mass density ([2]; 313.15 K): 1280 ± 4 kg/m3; surface tension liquid-gas ([2]; 318.15 K): 36 ± 0.7 mN/m; viscosity ([2]; 318.15 K): 110.24 ± 5 mPa·s; speed of sound ([2]; 318.15 K): 1374.9 ± 3.1 m/s; mass density ([2]; 318.15 K): 1276 ± 4 kg/m3; surface tension liquid-gas ([2]; 323.15 K): 35.7 ± 0.7 mN/m; viscosity ([2]; 323.15 K): 86.42 ± 2.9 mPa·s; speed of sound ([2]; 323.15 K): 1363.4 ± 3.1 m/s; mass density ([2]; 323.15 K): 1272 ± 4 kg/m3; surface tension liquid-gas ([2]; 328.15 K): 35.4 ± 0.7 mN/m; viscosity ([2]; 328.15 K): 68.87 ± 1.6 mPa·s; speed of sound ([2]; 328.15 K): 1352.1 ± 3.1 m/s; mass density ([2]; 328.15 K): 1268 ± 4 kg/m3; surface tension liquid-gas ([2]; 333.15 K): 35.1 ± 0.7 mN/m; viscosity ([2]; 333.15 K): 55.62 ± 0.9 mPa·s; speed of sound ([2]; 333.15 K): 1340.8 ± 3.1 m/s; mass density ([2]; 333.15 K): 1264 ± 4 kg/m3
4 | CCCCCCCC[n+]1ccn(C)c1.F[P-](F)(F)(F)(F)F [1-octyl-3-methylimidazolium hexafluorophosphate] | 1.4217 ± 0.0013 | 1.4211 ± 0.0013 | 1.4206 ± 0.0013 | 1.4201 ± 0.0013 | 1.4195 ± 0.0013 | 1.4186 ± 0.0013 | 1.4177 ± 0.0013 | 1.4167 ± 0.0013 | 36.1 ± 1 mN/m | 603.44 ± 82 mPa·s | 1404.7 ± 5.1 m/s | 1234 ± 8 kg/m3 | 35.9 ± 1 mN/m | 430.88 ± 51 mPa·s | 1390.3 ± 5.1 m/s | 1231 ± 8 kg/m3 | 35.6 ± 1 mN/m | 314.44 ± 32 mPa·s | 1376.6 ± 5.1 m/s | 1226 ± 8 kg/m3 | surface tension liquid-gas ([2]; 313.15 K): 35.3 ± 1 mN/m; viscosity ([2]; 313.15 K): 234.24 ± 20 mPa·s; speed of sound ([2]; 313.15 K): 1363.6 ± 5.1 m/s; mass density ([2]; 313.15 K): 1223 ± 8 kg/m3; surface tension liquid-gas ([2]; 318.15 K): 35.1 ± 1 mN/m; viscosity ([2]; 318.15 K): 177.79 ± 13 mPa·s; speed of sound ([2]; 318.15 K): 1351 ± 5.1 m/s; mass density ([2]; 318.15 K): 1219 ± 8 kg/m3; surface tension liquid-gas ([2]; 323.15 K): 34.9 ± 1 mN/m; viscosity ([2]; 323.15 K): 137.24 ± 8.3 mPa·s; speed of sound ([2]; 323.15 K): 1338.9 ± 5.1 m/s; mass density ([2]; 323.15 K): 1215 ± 8 kg/m3; surface tension liquid-gas ([2]; 328.15 K): 34.6 ± 1 mN/m; viscosity ([2]; 328.15 K): 107.58 ± 5.2 mPa·s; speed of sound ([2]; 328.15 K): 1327 ± 5.1 m/s; mass density ([2]; 328.15 K): 1211 ± 8 kg/m3; surface tension liquid-gas ([2]; 333.15 K): 34.3 ± 1 mN/m; viscosity ([2]; 333.15 K): 85.58 ± 3.3 mPa·s; speed of sound ([2]; 333.15 K): 1315.5 ± 5.1 m/s; mass density ([2]; 333.15 K): 1208 ± 8 kg/m3
5 | CCn1cc[n+](C)c1.COS(=O)(=O)[O-] [1-ethyl-3-methylimidazolium methylsulfate] | 1.4741 ± 0.0009 | 1.4739 ± 0.0009 | 1.4735 ± 0.0009 | 1.4721 ± 0.0009 | 1.4716 ± 0.0009 | 1.4706 ± 0.0009 | 1.4702 ± 0.0009 | 1.4698 ± 0.0009 | 39.8 ± 0.7 mN/m | 94.91 ± 3.4 mPa·s | 1762.1 ± 2.2 m/s | 1292 ± 2 kg/m3 | 39.5 ± 0.7 mN/m | 76.8 ± 2 mPa·s | 1750.4 ± 2.2 m/s | 1289 ± 2 kg/m3 | 39.2 ± 0.7 mN/m | 61.66 ± 0.94 mPa·s | 1738.7 ± 2.2 m/s | 1285 ± 2 kg/m3 | surface tension liquid-gas ([2]; 313.15 K): 38.9 ± 0.7 mN/m; viscosity ([2]; 313.15 K): 51.28 ± 0.52 mPa·s; speed of sound ([2]; 313.15 K): 1727 ± 2.2 m/s; mass density ([2]; 313.15 K): 1282 ± 2 kg/m3; surface tension liquid-gas ([2]; 318.15 K): 38.8 ± 0.7 mN/m; viscosity ([2]; 318.15 K): 42.42 ± 0.69 mPa·s; speed of sound ([2]; 318.15 K): 1715.5 ± 2.2 m/s; mass density ([2]; 318.15 K): 1279 ± 2 kg/m3; surface tension liquid-gas ([2]; 323.15 K): 38.4 ± 0.7 mN/m; viscosity ([2]; 323.15 K): 35.33 ± 0.58 mPa·s; speed of sound ([2]; 323.15 K): 1704 ± 2.2 m/s; mass density ([2]; 323.15 K): 1275 ± 2 kg/m3; surface tension liquid-gas ([2]; 328.15 K): 38.2 ± 0.6 mN/m; viscosity ([2]; 328.15 K): 30.11 ± 0.49 mPa·s; speed of sound ([2]; 328.15 K): 1692.6 ± 2.2 m/s; mass density ([2]; 328.15 K): 1272 ± 2 kg/m3; surface tension liquid-gas ([2]; 333.15 K): 38 ± 0.6 mN/m; viscosity ([2]; 333.15 K): 26.25 ± 0.43 mPa·s; speed of sound ([2]; 333.15 K): 1681.3 ± 2.2 m/s; mass density ([2]; 333.15 K): 1268 ± 2 kg/m3
